The record followed here is BindingDB's records for patent US20250313563 (The Broad Institute, 2025).

“And” between values parts separate entries of the source, which are not always exact repeats. Equal entries are not always repeated.

By IC50 is commonly meant the point on the concentration scale where inhibition reaches its midpoint. Read a high IC50 as weaker potency.

Assay [1] deals with Glycogen synthase kinase-3 beta (Homo sapiens, UniProt P49841). Description: TR-FRET Assay. In outline: (§1)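 Enzyme and test compound were first incubated together for 30 minutes in assay buffer. The kinase reaction followed and was stopped with EDTA. The pSer641 signal was read by time-resolved FRET.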
Glycogen synthase kinase-3 beta, sequence (P49841 whole entry): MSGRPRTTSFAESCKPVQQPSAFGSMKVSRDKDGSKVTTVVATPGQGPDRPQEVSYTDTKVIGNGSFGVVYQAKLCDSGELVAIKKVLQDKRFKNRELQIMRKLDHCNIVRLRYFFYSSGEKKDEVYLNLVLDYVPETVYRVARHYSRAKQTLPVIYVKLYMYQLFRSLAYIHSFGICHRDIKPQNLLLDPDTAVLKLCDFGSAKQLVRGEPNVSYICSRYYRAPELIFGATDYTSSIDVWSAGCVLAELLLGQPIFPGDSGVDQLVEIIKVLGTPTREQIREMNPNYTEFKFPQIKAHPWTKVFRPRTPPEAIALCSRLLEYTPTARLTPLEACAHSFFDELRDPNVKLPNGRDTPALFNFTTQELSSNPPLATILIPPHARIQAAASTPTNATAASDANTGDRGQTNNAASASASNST
For orientation: In TR-FRET formats the signal depends on donor and acceptor labels being close together.

The target of assay [2] is Glycogen synthase kinase-3 alpha (Homo sapiens, UniProt P49840). Description: TR-FRET Assay. In short, it runs like this:
as §1

Glycogen synthase kinase-3 alpha, sequence (P49840 whole entry): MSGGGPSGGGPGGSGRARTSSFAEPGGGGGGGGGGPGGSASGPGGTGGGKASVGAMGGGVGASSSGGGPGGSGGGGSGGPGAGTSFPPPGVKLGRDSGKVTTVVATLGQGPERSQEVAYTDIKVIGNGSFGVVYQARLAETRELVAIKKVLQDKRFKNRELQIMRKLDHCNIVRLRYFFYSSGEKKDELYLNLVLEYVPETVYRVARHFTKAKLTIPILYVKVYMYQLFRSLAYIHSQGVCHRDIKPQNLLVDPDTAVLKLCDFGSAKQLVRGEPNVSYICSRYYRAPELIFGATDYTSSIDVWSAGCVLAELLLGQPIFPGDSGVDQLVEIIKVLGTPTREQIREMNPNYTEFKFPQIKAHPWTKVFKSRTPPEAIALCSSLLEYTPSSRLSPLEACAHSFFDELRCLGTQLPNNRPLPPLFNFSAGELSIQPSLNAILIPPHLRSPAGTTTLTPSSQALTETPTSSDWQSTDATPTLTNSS

Take `CCC1(c2cccc(-c3ccncn3)c2)C2=CN=NC2NC2=C1C(=O)CC(C)(C)C2` (configuration not stated) [US20250313563, Compound 806637]: the IC50 in assay [1] is 100 to 1000 nM; in assay [2], less than 100 nM.

For the compound `CC[C@]1(c2ccccc2)C2=CN=NC2NC2=C1C(=O)C[C@]1(CCN(C)C1=O)C2` (some centres not stated) [US20250313563, Compound 949760], the IC50 in assay [1] was greater than 5000 nM; in assay [2] it was 100 to 1000 nM.

For `CC(=O)N1C[C@@]2(C[C@@]3(CO2)C2=C(N=NC2)NC2=C3C(=O)CC(C)(C)C2)[C@@H]1C` [US20250313563, Compound 948438], the IC50 in assay [1] and in assay [2] was less than 100 nM in each case.

For `CC[C@]1(c2cccc(N(C)c3ccccn3)c2)C2=CN=NC2NC2=C1C(=O)CC(C)(C)C2` (some centres not stated) [US20250313563, Compound 875608], the half-inhibitory concentration (IC50) was greater than 5000 nM in assay [1] and 1000 to 5000 nM in assay [2].

Take `CC[C@]1(c2cccc(-c3ccnc(C)c3Cl)c2)C2=CN=NC2NC2=C1C(=O)NC(C)(C)C2` (some centres not stated) [US20250313563, Compound 948369]: the concentration for half-maximal inhibition (IC50) in assay [1] and in assay [2] was greater than 5000 nM throughout.

Take `CC1(C)CC(=O)C2=C(C1)NC1=C(CN=N1)C21COC2(CN(C(=O)Cc3ccccc3)C2)C1` (configuration not stated) [US20250313563, Compound 947306]: the IC50 in assay [1] and in assay [2] was less than 100 nM throughout.

`CC(=O)N1CCCC2(CC1)C1=CN=NC1NC1=C2C(=O)CC(C)(C)C1` (configuration not stated) [US20250313563, Compound 889575]: the IC50 in assay [1] was in the range of 1000 to 5000 nM; in assay [2], 100 to 1000 nM.

As for `CCC1(c2cccc(OCCOC)c2)C2=CN=NC2NC2=C1C(=O)CC(C)(C)C2` (configuration not stated) [US20250313563, Compound 801446], the half-inhibitory concentration (IC50) in assay [1] was greater than 1670 nM; in assay [2], 100 to 1000 nM.

Take `CC1(C)CC(=O)C2=C(C1)NC1=C(CN=N1)[C@@]2(C)c1cccc(-c2ccccc2)c1` [US20250313563, Compound 801366]: the IC50 in assay [1] and in assay [2] was greater than 5000 nM in each case.

As for `CC[C@@]1(c2cccc(-c3c(C)nnn3C)c2)C2=CN=NC2NC2=C1C(=O)CC(C)(C)C2` (some centres not stated) [US20250313563, Compound 946100], the values for the IC50 in assay [1] and in assay [2] were 1000 to 5000 nM and 100 to 1000 nM, respectively.

Turning to `C[C@@H]1C[C@]2(CCN1S(=O)(=O)c1ccn(C)n1)C1=C(N=NC1)NC1=C2C(=O)CC(C)(C)C1` [US20250313563, Compound 917161], the IC50 in assay [1] and in assay [2] was less than 100 nM in each case.

As to `CCCC(=O)N1CC2(C1)CC1(CO2)C2=C(N=NC2)NC2=C1C(=O)CC(C)(C)C2` (configuration not stated) [US20250313563, Compound 947300], the IC50 in assay [1] and in assay [2] was less than 100 nM throughout.

Turning to `Cn1ccc(S(=O)(=O)N2CCC[C@@]3(CC2)C2=CN=NC2NC2=C3C(=O)CC(C)(C)C2)n1` (some centres not stated) [US20250313563, Compound 932660], the IC50 in assay [1] was 100 to 1000 nM; in assay [2], less than 100 nM.

Turning to `CC[C@@]1(c2cccc(-c3ccnc(CCO)c3)c2)C2=CN=NC2NC2=C1C(=O)CC(C)(C)C2` (some centres not stated) [US20250313563, Compound 947810], the values for the IC50 in assay [1] and in assay [2] were 100 to 1000 nM and less than 100 nM, respectively.

As to `CC(=O)N1C[C@]2(C[C@]3(CO2)C2=C(N=NC2)NC2=C3C(=O)CC(C)(C)C2)[C@H]1C` [US20250313563, Compound 948439], the IC50 in assay [1] and in assay [2] was less than 100 nM each time.

Consider `CCC1(c2ccccc2)C2=C(N=NC2)NC2=C1C(=O)CCC2` (configuration not stated) [US20250313563, Compound 789497], for which the IC50 in assay [1] is greater than 5000 nM; in assay [2], 1000 to 5000 nM.

As to `CCC1(c2cccc(-c3cnn(C)c3)c2)C2=C(CC(C)(C)NC2=O)NC2N=NC(C)=C21` (configuration not stated) [US20250313563, Compound 944027], the values for the IC50 in assay [1] and in assay [2] were 100 to 1000 nM and less than 100 nM, respectively.

Consider `CC1(C)CC(=O)C2=C(C1)NC1=C(CN=N1)C21CCN(S(=O)(=O)Cc2ccccc2)CC1` [US20250313563, Compound 929437], for which the 50% inhibitory concentration (IC50) in assay [1] was < 100 nM and 100 to 1000 nM; in assay [2], less than 100 nM.

On to `CC[C@]1(c2cccc(-c3ccnc4ccc(OC)cc34)c2)C2=CN=NC2NC2=C1C(=O)NC(C)(C)C2` (some centres not stated) [US20250313563, Compound 948518], for which the IC50 in assay [1] and in assay [2] was greater than 5000 nM throughout.

`CC1(C)CC(=O)C2=C(C1)NC1=C(CN=N1)[C@]21COC2(CN(C(=O)c3ccccc3)C2)C1` [US20250313563, Compound 943956]: the values for the IC50 in assay [1] and in assay [2] were 1000 to 5000 nM and 100 to 1000 nM, respectively.

Turning to `CC[C@@]1(c2cccc(-c3ccnc(C)c3)c2)C2=CN=NC2NC2=C1C(=O)CC(C)(C)[C@H]2F` (some centres not stated) [US20250313563, Compound 946104], the half-maximal inhibitory concentration (IC50) in assay [1] and in assay [2] was 100 to 1000 nM in each case.

For `CCC1(c2cccc(-c3cn(C)nc3C(C)C)c2)C2=C(CC(C)(C)CC2=O)NC2N=NC(C)=C21` (configuration not stated) [US20250313563, Compound 883998], the IC50 in assay [1] is 100 to 1000 nM; in assay [2] it was less than 100 nM.

Turning to `CC[C@]1(c2cccc(-c3ccncc3)c2)C2=CN=NC2NC2=C1C(=O)CC(C)(C)C2` (some centres not stated) [US20250313563, Compound 801412], the half-inhibitory concentration (IC50) in assay [1] and in assay [2] was greater than 5000 nM each time.

For `COc1ccc(S(=O)(=O)N2CCC3(CC2)C2=C(N=NC2)NC2=C3C(=O)CC(C)(C)C2)cc1C` [US20250313563, Compound 945680], the IC50 in assay [1] and in assay [2] was less than 100 nM each time.

`CCC1(c2cccc(Cc3ncccc3C(F)(F)F)c2)C2=CN=NC2NC2=C1C(=O)CC(C)(C)C2` (configuration not stated) [US20250313563, Compound 947548]: the IC50 in assay [1] and in assay [2] was 100 to 1000 nM each time.

Consider `CC1(C)CC(=O)C2=C(C1)NC1=C(CN=N1)[C@]21C[C@@H](OCc2ccccc2)C1` [US20250313563, Compound 909211], for which the IC50 was 100 to 1000 nM in assay [1] and less than 100 nM in assay [2].

Turning to `CC[C@@]1(c2cccc(-c3ccnc(OC)c3F)c2)C2=CN=NC2NC2=C1C(=O)NC(C)(C)C2` (some centres not stated) [US20250313563, Compound 948531], the IC50 in assay [1] was greater than 5000 nM; in assay [2], 100 to 1000 nM.

In the case of `CCC1(c2cccc(N(C)c3cccnc3C)c2)C2=CN=NC2NC2=C1C(=O)CC(C)(C)C2` (configuration not stated) [US20250313563, Compound 885355], the half-inhibitory concentration (IC50) lay within 1000 to 5000 nM in assay [1] and 100 to 1000 nM in assay [2].

Take `CCn1nccc1-c1cccc(C2(CC)C3=CN=NC3NC3=C2C(=O)CC(C)(C)C3)c1` (configuration not stated) [US20250313563, Compound 929398]: the concentration for half-maximal inhibition (IC50) in assay [1] and in assay [2] was less than 100 nM throughout.

Take `CC1(C)CC(=O)C2=C(C1)NC1=C(CN=N1)C21CCN(S(=O)(=O)c2cnn3c2OCCC3)CC1` [US20250313563, Compound 947483]: the IC50 in assay [1] and in assay [2] was less than 100 nM throughout.

On to `CC[C@@H]1C[C@@]2(CCO1)C1=C(N=NC1)NC1=C2C(=O)CC(C)(C)C1` [US20250313563, Compound 907328], for which the concentration for half-maximal inhibition (IC50) in assay [1] was in the range of 1000 to 5000 nM; in assay [2] it was 100 to 1000 nM.

Regarding `CCC1(c2cccc(-c3ccnc(C)c3)c2)C2=C(CC(C)(C)NC2=O)NC2N=NC(C(F)(F)F)=C21` (configuration not stated) [US20250313563, Compound 947858], the IC50 in assay [1] and in assay [2] was less than 100 nM each time.

Regarding `CCC1(c2cccc(-c3ccnc4c3CCC4)c2)C2=C(CC(C)(C)NC2=O)NC2N=NC(C(F)(F)F)=C21` (configuration not stated) [US20250313563, Compound 947862], the IC50 in assay [1] was < 100 nM and 100 to 1000 nM; in assay [2], less than 100 nM.

For `CC1(C)CC(=O)C2=C(C1)NC1N=NC=C1C21CCCN(CC(F)(F)F)CC1` (configuration not stated) [US20250313563, Compound 889576], the 50% inhibitory concentration (IC50) in assay [1] and in assay [2] was 100 to 1000 nM each time.

On to `CC1(C)CC(=O)C2=C(C1)NC1=C(CN=N1)[C@@]21CCO[C@@H](C(C)(C)C)C1` [US20250313563, Compound 912113], for which the IC50 in assay [1] and in assay [2] was 1000 to 5000 nM in each case.

Take `O=C1CCCC2=C1C1(CCOCC1)C1=C(N=NC1)N2` [US20250313563, Compound 884111]: the IC50 in assay [1] was greater than 5000 nM; in assay [2] it was 1000 to 5000 nM.

With `Cc1ccc(C(=O)N2CC3(C2)CC2(CO3)C3=C(N=NC3)NC3=C2C(=O)CC(C)(C)C3)c(C)c1` (configuration not stated) [US20250313563, Compound 947294], the results for the IC50 in assay [1] and in assay [2] were 100 to 1000 nM and less than 100 nM, respectively.

Consider `CC1(C)CC(=O)C2=C(C1)NC1=C(CN=N1)C21CCC(F)(F)CC1` [US20250313563, Compound 883972], for which the half-maximal inhibitory concentration (IC50) was 100 to 1000 nM in assay [1] and less than 100 nM in assay [2].

With `CC1(C)CC(=O)C2=C(C1)NC1=C(CN=N1)[C@]21CC[C@H](c2ccncc2)CC1` [US20250313563, Compound 949321], the IC50 in assay [1] and in assay [2] was less than 100 nM each time.

Consider `CCC1(c2cccc(Oc3ncccn3)c2)C2=C(CC(C)(C)NC2=O)NC2N=NC(Cl)=C21` (configuration not stated) [US20250313563, Compound 950318], for which the IC50 in assay [1] and in assay [2] was less than 100 nM throughout.

Consider `COc1ccc(S(=O)(=O)N2CCC3(CC2)C2=C(N=NC2)NC2=C3C(=O)CC(C)(C)C2)cc1` [US20250313563, Compound 917143], for which the half-inhibitory concentration (IC50) in assay [1] and in assay [2] was less than 100 nM in each case.

Regarding `CCC1(c2cccc(N3CCCC[C@@H]3C)c2)C2=CN=NC2NC2=C1C(=O)CC(C)(C)C2` (some centres not stated) [US20250313563, Compound 885217], the IC50 in assay [1] and in assay [2] was 100 to 1000 nM in each case.

For the compound `CC[C@]1(c2ccccc2)C2=CN=NC2NC2=C1C(=O)C[C@]1(CCOC1)C2` (some centres not stated) [US20250313563, Compound 816884], the IC50 in assay [1] fell in the range of 1000 to 5000 nM; in assay [2] it was 100 to 1000 nM.

As to `CC[C@]1(c2cccc(C)c2)C2=CN=NC2NC2=C1C(=O)CC1(CCCC1)C2` (some centres not stated) [US20250313563, Compound 801313], the 50% inhibitory concentration (IC50) in assay [1] is greater than 5000 nM; in assay [2], greater than 1670 nM.

On to `CC[C@]1(c2cccc(-c3cc(C4CCCC4)nn3C)c2)C2=CN=NC2NC2=C1C(=O)NC(C)(C)C2` (some centres not stated) [US20250313563, Compound 949509], for which the IC50 in assay [1] and in assay [2] was greater than 5000 nM in each case.

Consider `CC1(C)CC(=O)C2=C(C1)NC1=C(CN=N1)[C@]21CCO[C@H](C(C)(C)C)C1` [US20250313563, Compound 912112], for which the IC50 in assay [1] and in assay [2] was 100 to 1000 nM each time.
